From patent US7531320B2, “Modulation of β-catenin/TCF-activated transcription” (priority 2003, dated 2009) come the findings set out here.

Data set [1] can be described thus: Bioavailability study in mouse. The note with it: i.v and p.o, 10 mg/kg, 20% Tween 80. In kind it is in vivo. The protocol:
Bioavailability of COMPOUND 3, COMPOUND 4 and COMPOUND 5 was studied in mouse and rat. All the compounds were administered (i.v and p.o, 10 mg/kg) using the same vehicle (i.e., 20% Tween 80).

A further data set concerns Min mouse. Kind of data set: Polyp number in Min mouse model. In kind it is in vivo. The protocol: COMPOUND 4, COMPOUND 5, or vehicle was administrated in wild type and Min mice. COMPOUND 4 is also an analog of COMPOUND 1 (FIG. 1A). The numbers of polyp formed in small intestine and colon of these mice after various treatments were measured (Table 6).

Each structure is given as a SMILES string.

In turn, `CN1CC(=O)N2C(Cc3ccc(O)cc3)C(=O)N(Cc3ccc(F)cc3F)CC2N1C(=O)NCc1ccccc1` (stereo not drawn) [COMPOUND 5] returned a Bioavailability in data set [1] of around 0%. For the same compound, the “Effect on number of polyp compared to vehicle control” value in the data set with Min mouse (Min mice, about 300 mpk) is listed as “reduce the number of polyp”. Further, the “Polyp Number (Mean + S.D.), Total” value with Min mouse (Min mouse) is 71.4 ± 23.0; with Min mouse (Min mouse, 300 mpk) it was 47.0 ± 16.9. The “Polyp Number (Mean + S.D.), Colon” value is given as 1.7 ± 1.5 with Min mouse (Min mouse, 100 mpk) and 1.1 ± 1.2 with Min mouse (Min mouse, 300 mpk). For the same compound, the “Polyp Number (Mean + S.D.), Small intestine” value with Min mouse (Min mouse, 100 mpk) was 69.2 ± 20.8; in the data set with Min mouse (Min mouse, 300 mpk), 46.1 ± 17.1. The “% Inhibition vs. VH” value in the data set on Min mouse (Min mouse, 300 mpk, total polyp number vs. vehicle) is recorded as 31%.
